The target in this assay is T1, human TMEM16A (TMEM16Aabc variant) (Homo sapiens, UniProt Q5XXA6, DEL476-501).
T1 sequence (Q5XXA6 with tags, fused parts or gaps isoform Q5XXA6-5 DEL539-564): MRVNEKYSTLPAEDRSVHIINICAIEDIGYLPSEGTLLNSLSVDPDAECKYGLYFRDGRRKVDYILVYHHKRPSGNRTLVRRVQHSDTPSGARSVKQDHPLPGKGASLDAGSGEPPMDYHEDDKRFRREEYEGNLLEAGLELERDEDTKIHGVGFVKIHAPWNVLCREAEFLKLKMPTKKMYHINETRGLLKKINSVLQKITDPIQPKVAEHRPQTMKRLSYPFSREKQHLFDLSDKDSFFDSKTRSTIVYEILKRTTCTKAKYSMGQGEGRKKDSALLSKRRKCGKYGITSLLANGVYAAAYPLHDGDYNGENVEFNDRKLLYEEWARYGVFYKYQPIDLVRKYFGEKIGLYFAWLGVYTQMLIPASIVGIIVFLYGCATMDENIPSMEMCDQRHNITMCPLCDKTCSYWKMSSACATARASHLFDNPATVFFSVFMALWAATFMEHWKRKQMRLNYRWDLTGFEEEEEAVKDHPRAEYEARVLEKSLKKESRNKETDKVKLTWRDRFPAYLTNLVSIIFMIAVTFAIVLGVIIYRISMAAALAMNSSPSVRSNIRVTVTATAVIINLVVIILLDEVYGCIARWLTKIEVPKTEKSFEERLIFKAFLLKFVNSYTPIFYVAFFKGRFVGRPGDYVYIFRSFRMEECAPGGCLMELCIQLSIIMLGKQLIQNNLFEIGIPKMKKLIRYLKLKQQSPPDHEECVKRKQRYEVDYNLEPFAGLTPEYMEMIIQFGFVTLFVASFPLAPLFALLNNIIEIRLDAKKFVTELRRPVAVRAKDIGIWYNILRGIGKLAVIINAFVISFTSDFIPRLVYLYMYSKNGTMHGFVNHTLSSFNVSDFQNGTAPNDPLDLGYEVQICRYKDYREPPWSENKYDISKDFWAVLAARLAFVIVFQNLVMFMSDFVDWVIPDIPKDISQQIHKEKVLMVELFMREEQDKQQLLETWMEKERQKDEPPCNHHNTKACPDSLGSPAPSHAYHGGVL
Nature of the assay: Automated whole-cell patch clamp (Qpatch) TMEM16A potentiator assay in FRT cells stably expressing human TMEM16A. The settings on record: for activation at 3.33 µM: 3.33 μM test compound, percentage increase of baseline TMEM16A current at +70 mV, intracellular calcium at EC20, read-out: % Potentiation @ 3.33 μM Avg; for EC50: cumulative concentration response, 5 min per concentration, whole-cell patch clamp. The assay is classed as cell-based. How it is done: Automated whole-cell patch clamp assay to detect TMEM16A activity in recombinant cells Cell culture and preparation
Fisher rat thyroid (FRT) cells stably expressing human TMEM16A (TMEM16Aabc variant; Dr Luis Galietta, Insituto Giannina, Italy) were cultured in T-75 flasks in Hams F-12 media with Coon's modification (Sigma) supplemented with 10% (v/v) foetal bovine serum, penicillin-streptomycin (10,000 U/mL/10000 μg/mL), G-418 (750μg/mL), L-glutamine (2 mM) and sodium bicarbonate solution (7.5% v/v). At —90% confluence cells were harvested for experiments by detachment with a 2:1 (v/v) mixture of Detachin (BMS Biotechnology) and 0.25% (w/v) trypsin-EDTA. Cells were diluted to a density of 3.5-4.5×10^6 cells/mL with media consisting of CHO-S-SFM II (Sigma), 25 mM HEPES (Sigma) and Soy bean trypsin inhibitor (Sigma).
Whole-Cell Patch Clamp Recording
FRT-TMEM16A cells were whole-cell patch clamped using an automated planar patch clamp system (Qpatch, Sophion). Briefly, once high resistance (GOhm) seals were established between the cells and the planar recording array the patch was ruptured using suction pulses to establish the whole-cell recording configuration of the patch clamp technique. The assay employed the following solutions (all reagents Sigma):
Intracellular solution (mM): N-methyl-D-glucamine 130, CaCl2 18.2, MgCl2 1, HEPES 10, EGTA 10, BAPTA 20, Mg-ATP 2, pH 7.25, 325mOsm with sucrose.
Extracellular solution (mM): N-methyl-D-glucamine 130, CaCl2 2, MgCl2 1, HEPES 10, pH 7.3, 320 mOsm with sucrose.
The intracellular solution buffers intracellular calcium at levels required to give —20% activation of the maximal TMEM16A mediated current (EC20 for calcium ions). Cells were voltage clamped at a holding potential of -70mV and a combined voltage step (to +70 mV)/ramp (−90 my to +90 mV) was applied at 0.05 Hz. After a period of current stabilisation test compounds, solubilised in 100% (v/v) DMSO and subsequently diluted into extracellular solution, were applied to generate a cumulative concentration response curve. Each concentration of test compound was incubated for 5 minutes before addition of the next concentration. After the final concentration was tested a supramaximal concentration of either a known active positive modulator or the TMEM16A inhibitor, CaCCinhA01 (Del La Fuente et al, 2008) was added to define the upper and lower limits of the assay.
Compound activity was quantified by measuring the increase in current upon compound addition and expressing this as a percentage increase of baseline TMEM16A current level. Percentage increases in current were determined for each concentration and the data plotted as a function of concentration using either the Qpatch software or Graphpad Prism v6.05 providing the concentration which gave 50% of its maximal effect (EC50) and maximum efficacy (percentage of baseline increase).
In FIG. 1, IBL equals baseline current, km equals the peak current during test compound concentration 1 incubation period and so on.
Peak TMEM16A current at +70mV was plotted as a function of time over the assay period. Baseline current (IBL) was measured after a period of stabilisation. The increase in current for each compound addition was determined by taking the peak current during the incubation period and subtracting the current from the previous recording period and then expressing this as a percentage of the baseline current. For test compound concentration 1 in FIG. 1 this is:
For each additional concentration tested the increase in current was determined by subtracting the current from the previous incubation period and normalising the baseline value—for test concentration 2 in FIG. 1 this is:
The values for each test concentration were plotted as a cumulative function of concentration e.g. for test concentration two this would be the sum of the peak changes measured during concentration one plus concentration two.
In general terms: In patch-clamp work, channel activity is measured electrically.

What is called EC50 is the concentration at which the effect is half-maximal.

Take `O=C(CC1CCCCC1)Nc1ccc2[nH]c(Cc3ccccc3)nc2c1` [Example 1.1, N-(2-Benzyl-1H-benzimidazol-5-yl)-2-cyclohexyl-acetamide]: the activation at 3.33 µM was 127% and the concentration giving a half-maximal response (EC50) was determined as 250 nM.
`O=C(NCC1CCCCC1)c1ccc2[nH]c(Cc3ccccc3)nc2c1` [Example 1.2, 2-Benzyl-N-(cyclohexylmethyl)-1H-benzimidazole-5-carboxamide]: the activation at 3.33 µM was determined as 111% and the EC50 came to 225 nM.
For `O=C(NCC12CC3CC(CC(C3)C1)C2)c1ccc2[nH]c(Cc3ccccc3)nc2c1` [Example 1.2.1, N-(1-Adamantylmethyl)-2-benzyl-1H-benzimidazole-5-carboxamide], the activation at 3.33 µM is 146% and the EC50 was 441 nM.
On to `CC1(CNC(=O)c2ccc3[nH]c(Cc4ccccc4)nc3c2)CCCC1` [Example 1.2.2, 2-Benzyl-N-I(1-methylcyclopentyl)methylj-1H-benzimidazole-5-carboxamide], for which the activation at 3.33 µM came to 144% and the EC50 was 203 nM.
As to `C[C@@H](NC(=O)c1ccc2[nH]c(Cc3ccccc3)nc2c1)C1CCCCC1` [Example 1.2.3, 2-Benzyl-N-[(1R)-1-cyclohexylethyl]-1H-benzimidazole-5-carboxamide], the activation at 3.33 µM is 153% and the half-maximal effective concentration (EC50) was 792 nM.
The matching figures for `CCC(C)(C)c1nc2ccc(C(=O)NCC3CCCCCC3)cc2[nH]1` [Example 1.3, N-(Cycloheptylmethyl)-2-(1,1-dimethylpropyl)-3H-benzimidazole-5-carboxamide]: 78.5% and 563 nM.
In the case of `O=C(NCC1CCCCCC1)c1ccc2[nH]c(CC3(O)CCCCC3)nc2c1` [Example 1.3.1, N-(Cycloheptylmethyl)-2-[(1-hydroxycyclohexyl)methyl]-1H-benzimidazole-5-carboxamide], the activation at 3.33 µM amounted to 135% and the concentration giving a half-maximal response (EC50) was found to be 425 nM.
With `O=C(NCC1CCCCCC1)c1ccc2[nH]c(C(CO)c3ccccc3)nc2c1` (stereo not drawn) [Example 1.3.2, N-(Cycloheptylmethyl)-2-(2-hydroxy-1-phenyl-ethyl)-1H-benzimidazole-5-carboxamide], the activation at 3.33 µM was determined as 92.9% and the concentration giving a half-maximal response (EC50) was determined as 581 nM.
In the case of `O=C(NCC1CCCCC1)c1ccc2nc(Cc3cccc(O)c3)[nH]c2c1` [Example 1.4, N-(Cyclohexylmethyl)-2-[(3-hydroxyphenyl)methyl]-3H-benzimidazole-5-carboxamide], the activation at 3.33 µM came out at 81.3% and the half-maximal effective concentration (EC50) was 384 nM.
`O=C(CC12CC3CC(CC(C3)C1)C2)Nc1ccc2[nH]c(Cc3cccc(O)c3)nc2c1` [Example 1.5, 2-(1-Adamantyl)-N-12-[(3-hydroxyphenyl)methyl]-1H-benzimidazol-5-yljacetamide]: the activation at 3.33 µM amounted to 162% and the EC50 is 1080 nM.
With `CC1(CC(=O)Nc2ccc3[nH]c(Cc4cccc(O)c4)nc3c2)CCCCC1` [Example 1.5.1, N-[2-[(3-hydroxyphenyl)methyl]-1H-benzimidazol-5-yl]-2-(1-methylcyclohexyl) acetamide], the activation at 3.33 µM came to 105% and the EC50 amounted to 222 nM.
The matching figures for `O=C(CC1CCCCCC1)Nc1ccc2[nH]c(Cc3cccc(O)c3)nc2c1` [Example 1.5.2, 2-Cycloheptyl-N-[2-[(3-hydroxyphenyl)methyl]-1H-benzimidazol-5-yl]acetamide]: 136% and 227 nM.
With `O=C(CC1CCCCC1)Nc1ccc2[nH]c(Cc3cccc(O)c3)nc2c1` [Example 1.5.3, 2-Cyclohexyl-N-12-[(3-hydroxyphenyl)methyl]-1H-benzimidazol-5-yljacetamide], the activation at 3.33 µM was 93.1% and the concentration for a half-maximal effect (EC50) is 566 nM.
Regarding `O=C(CC12CC3CC(CC(C3)C1)C2)Nc1ccc2[nH]c(Cc3ccccc3)nc2c1` [Example 1.5.4, 2-(1-Adamantyl)-N-(2-benzyl-1H-benzimidazol-5-yl)acetamide], the activation at 3.33 µM turned out to be 219% and the EC50 came to 834 nM.
Regarding `O=C(CC1(O)C2CC3CC(C2)CC1C3)Nc1ccc2[nH]c(Cc3ccccc3)nc2c1` (stereo not drawn) [Example 1.6], the activation at 3.33 µM was determined as 83.9% and the EC50 is 231 nM.
`COc1cccc(Cc2nc3cc(NC(=O)CC4C5CC6CC(C5)CC4C6)ccc3[nH]2)c1` (stereo not drawn) [Example 1.7, 2-(2-Adamantyl)-N-12-[(3-methoxyphenyl)methyl]-1H-benzimidazol-5-yljacetamide]: the activation at 3.33 µM is 136% and the EC50 is 587 nM.
The matching figures for `C[C@@H](c1ccccc1)c1nc2cc(NC(=O)CC3C4CC5CC(C4)CC3C5)ccc2[nH]1` (stereo partly drawn) [Example 1.7.1, 2-(2-Adamantyl)-N[2-[(1 S)-1-phenylethyl]-1H-benzimidazol-5-yl]acetamide]: 157% and 273 nM.
With `C[C@H](c1ccccc1)c1nc2cc(NC(=O)CC3C4CC5CC(C4)CC3C5)ccc2[nH]1` (stereo partly drawn) [Example 1.7.2, 2-(2-Adamantyl)-N[2-[(1R)-1-phenylethyl]-1H-benzimidazol-5-yl]acetamide], the activation at 3.33 µM is 143% and the concentration giving a half-maximal response (EC50) was determined as 294 nM.
As for `CC(C)(C)OC(=O)NCc1nc2cc(NC(=O)CC34CC5CC(CC(C5)C3)C4)ccc2[nH]1` [Example 1.7.3, tert-Butyl N-[[5-[[2-(1-adamantyl)acetyl]amino]-1H-benzimidazol-2-yl]methyl]carbamate], the activation at 3.33 µM came out at 114% and the EC50 turned out to be 1120 nM.
On to `COc1ncccc1Cc1nc2cc(NC(=O)CC34CC5CC(CC(C5)C3)C4)ccc2[nH]1` [Example 1.7.4, 2-(1-Adamantyl)-N-12-[(2-methoxy-3-pyridyl)methyl]-1H-benzimidazol-5-yljacetamide], for which the activation at 3.33 µM was 148% and the EC50 was determined as 1310 nM.
Take `O=C(CC1C2CC3CC(C2)CC1C3)Nc1ccc2[nH]c(Cc3cccc(O)c3)nc2c1` (stereo not drawn) [Example 1.8, 2-(2-Adamantyl)-N-12-[(3-hydroxyphenyl)methyl]-1H-benzimidazol-5-yljacetamide]: the activation at 3.33 µM worked out at 126% and the EC50 is 260 nM.

These data come from US20240132467A1, “BENZIMIDAZOLE DERIVATIVES FOR TREATING RESPIRATORY DISEASE” (TMEM16A Limited, priority 2020, published 2024).
